Assay results reported in patent US11331299B2, “Medicinal use of serrulatane diterpenes” (The University of Sydney, priority 2016, dated 2022).

How the values were obtained:
Deacetylase, Histone 6 = Deacetylase, Histone 6 (Homo sapiens, UniProt Q9UBN7); assay: Deacetylase, Histone 6 (PanLab); assay type: biochemical; conditions: assay year 2014, read-out: % Control Response
[1] = target: Deacetylase, Sirtuin SIRT3 (Homo sapiens, UniProt Q9NTG7); assay: Deacetylase, Sirtuin SIRT3 (PanLab); assay type: biochemical; conditions: assay year 2014, read-out: % Control Response
Deacetylase, Histone 5 = Deacetylase, Histone 5 (Homo sapiens, UniProt Q9UQL6); assay: Deacetylase, Histone 5 (PanLab); assay type: biochemical; conditions: assay year 2014, read-out: % Control Response
BRPF1-1 (h) bromodomain = target: T1, BRPF1-1 (h) bromodomain (Homo sapiens, UniProt P55201); assay: Epigenetic binding assay, Bromodomain; conditions: 10 μM; read-out: % Inhibition of Control Specific Binding
T1 construct: Bromodomain
T1 sequence (P55201 628-732 limits assumed): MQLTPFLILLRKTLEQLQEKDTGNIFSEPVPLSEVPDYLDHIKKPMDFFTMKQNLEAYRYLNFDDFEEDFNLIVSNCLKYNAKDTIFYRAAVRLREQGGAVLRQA

UHRF1 (108-286) (h) = target: T2, UHRF1 (108-286) (h) (Homo sapiens, UniProt Q96T88); assay: Epigenetic binding assay, PHD domain; conditions: for inhibition at 10 µM: read-out: % Inhibition of Control Specific Binding
T2 construct: Eurofins CEREP (France), contract laboratory
T2 sequence (Q96T88 108-286): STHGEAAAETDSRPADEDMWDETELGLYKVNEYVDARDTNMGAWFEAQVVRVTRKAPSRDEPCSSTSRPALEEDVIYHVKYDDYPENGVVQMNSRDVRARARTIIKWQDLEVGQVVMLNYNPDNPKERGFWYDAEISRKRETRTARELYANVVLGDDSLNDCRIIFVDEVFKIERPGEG

Deacetylase, Histone 11 = Deacetylase, Histone 11 (Homo sapiens, UniProt Q96DB2); assay: Deacetylase, Histone 11 (PanLab); assay type: biochemical; conditions: assay year 2014, read-out: % Control Response
UTX (h) = UTX (h) (Homo sapiens, UniProt O15550); assay: Epigenetic enzyme assay, Demethylases (KDMs); assay type: biochemical; conditions: for inhibition at 10 µM: read-out: % Inhibition of Control Values
Sequence of UTX (h) (O15550 whole entry): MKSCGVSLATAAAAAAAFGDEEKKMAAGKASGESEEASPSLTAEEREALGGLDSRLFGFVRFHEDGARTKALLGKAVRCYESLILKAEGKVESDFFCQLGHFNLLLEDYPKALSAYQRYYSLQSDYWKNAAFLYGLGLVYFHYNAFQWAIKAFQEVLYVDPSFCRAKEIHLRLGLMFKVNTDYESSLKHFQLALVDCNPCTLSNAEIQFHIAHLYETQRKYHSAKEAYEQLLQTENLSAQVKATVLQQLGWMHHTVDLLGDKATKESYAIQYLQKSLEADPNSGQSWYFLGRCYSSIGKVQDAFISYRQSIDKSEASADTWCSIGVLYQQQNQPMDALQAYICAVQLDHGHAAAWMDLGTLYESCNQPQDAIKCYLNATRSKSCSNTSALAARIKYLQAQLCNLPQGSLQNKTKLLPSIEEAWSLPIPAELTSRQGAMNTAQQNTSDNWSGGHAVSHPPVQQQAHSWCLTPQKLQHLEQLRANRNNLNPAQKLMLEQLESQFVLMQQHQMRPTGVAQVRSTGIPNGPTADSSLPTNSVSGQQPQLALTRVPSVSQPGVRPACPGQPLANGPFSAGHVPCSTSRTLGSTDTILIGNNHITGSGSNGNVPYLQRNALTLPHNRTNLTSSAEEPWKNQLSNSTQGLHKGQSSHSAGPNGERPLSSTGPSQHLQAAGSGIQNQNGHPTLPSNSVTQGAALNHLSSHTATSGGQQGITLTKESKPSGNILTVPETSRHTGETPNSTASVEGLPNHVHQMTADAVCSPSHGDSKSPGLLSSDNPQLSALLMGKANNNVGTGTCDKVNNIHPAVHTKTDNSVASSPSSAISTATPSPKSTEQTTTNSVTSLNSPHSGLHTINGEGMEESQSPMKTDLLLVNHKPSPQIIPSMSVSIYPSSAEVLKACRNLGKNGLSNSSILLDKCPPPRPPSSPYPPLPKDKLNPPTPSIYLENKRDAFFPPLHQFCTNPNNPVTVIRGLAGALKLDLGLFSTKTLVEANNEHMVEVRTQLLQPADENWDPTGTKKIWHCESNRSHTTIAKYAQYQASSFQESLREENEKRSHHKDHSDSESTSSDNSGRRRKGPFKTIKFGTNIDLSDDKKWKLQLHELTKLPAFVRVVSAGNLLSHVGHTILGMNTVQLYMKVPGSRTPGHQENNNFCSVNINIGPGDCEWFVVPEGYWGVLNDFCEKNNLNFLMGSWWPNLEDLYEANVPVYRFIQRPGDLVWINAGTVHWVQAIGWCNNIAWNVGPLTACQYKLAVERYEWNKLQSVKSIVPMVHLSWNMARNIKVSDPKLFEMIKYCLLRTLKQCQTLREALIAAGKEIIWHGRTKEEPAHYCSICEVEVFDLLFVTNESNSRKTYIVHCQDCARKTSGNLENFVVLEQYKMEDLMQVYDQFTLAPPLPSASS

[2] = target: Deacetylase, Sirtuin SIRT2 (Homo sapiens, UniProt Q8IXJ6); assay: Deacetylase, Sirtuin SIRT2 (PanLab); assay type: biochemical; conditions: assay year 2014, read-out: % Control Response
Deacetylase, Histone 10 = Deacetylase, Histone 10 (Homo sapiens, UniProt Q969S8); assay: Deacetylase, Histone 10 (PanLab); assay type: biochemical; conditions: assay year 2014, read-out: % Control Response
Sequence of Deacetylase, Histone 10 (Q969S8 whole entry): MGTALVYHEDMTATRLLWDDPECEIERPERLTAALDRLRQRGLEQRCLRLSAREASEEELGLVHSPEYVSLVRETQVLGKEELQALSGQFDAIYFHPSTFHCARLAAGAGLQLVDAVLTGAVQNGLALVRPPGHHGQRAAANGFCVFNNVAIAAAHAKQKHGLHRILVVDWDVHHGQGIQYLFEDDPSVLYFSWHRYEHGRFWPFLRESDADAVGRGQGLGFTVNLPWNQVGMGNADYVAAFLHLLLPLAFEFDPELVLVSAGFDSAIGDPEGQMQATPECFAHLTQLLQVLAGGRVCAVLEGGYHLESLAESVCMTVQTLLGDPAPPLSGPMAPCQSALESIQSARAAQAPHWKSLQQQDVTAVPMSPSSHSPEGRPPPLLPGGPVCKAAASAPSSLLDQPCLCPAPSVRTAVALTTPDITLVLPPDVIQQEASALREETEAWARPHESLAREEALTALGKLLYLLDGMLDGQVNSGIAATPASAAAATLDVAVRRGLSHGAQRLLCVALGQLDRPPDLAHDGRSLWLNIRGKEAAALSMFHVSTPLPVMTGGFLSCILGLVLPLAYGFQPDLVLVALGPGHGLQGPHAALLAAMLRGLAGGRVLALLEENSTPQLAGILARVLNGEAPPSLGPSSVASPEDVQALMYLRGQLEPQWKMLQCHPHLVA

Deacetylase, Histone 4 = Deacetylase, Histone 4 (Homo sapiens, UniProt P56524); assay: Deacetylase, Histone 4 (PanLab); assay type: biochemical; conditions: assay year 2014, read-out: % Control Response
Deacetylase, Histone 9 = Deacetylase, Histone 9 (Homo sapiens, UniProt Q9UKV0); assay: Deacetylase, Histone 9 (PanLab); assay type: biochemical; conditions: assay year 2014, read-out: % Control Response
[3] = system: Nitric Oxide Synthase, Endothelial (eNOS); assay: Nitric Oxide Synthase, Endothelial (eNOS); assay type: biochemical; conditions: 10 μM; assay year 2014
Phospholipase sPLA2-V = target: T3, Phospholipase sPLA2-V (Homo sapiens, UniProt P39877); assay: Phospholipase sPLA2-V; assay type: biochemical; conditions: assay year 2015, read-out: % Control Response
T3 construct: host or cells: E. coli
T3 sequence (P39877 21-138): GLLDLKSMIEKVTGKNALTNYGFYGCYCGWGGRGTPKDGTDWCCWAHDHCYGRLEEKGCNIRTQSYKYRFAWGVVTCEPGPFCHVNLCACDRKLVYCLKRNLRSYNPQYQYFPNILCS
Method: The in vitro pharmacological studies were conducted by Eurofins PanLab (Taiwan) using the parameters shown in Table 13 with respect to appropriate literature references.

[4] = target: Deacetylase, Sirtuin SIRT5 (Homo sapiens, UniProt Q9NXA8); assay: Deacetylase, Sirtuin SIRT5 (PanLab); assay type: biochemical; conditions: assay year 2014, read-out: % Control Response
Deacetylase, Histone 7 = Deacetylase, Histone 7 (Homo sapiens, UniProt Q8WUI4); assay: Deacetylase, Histone 7 (PanLab); assay type: biochemical; conditions: assay year 2014, read-out: % Control Response
H3K9 ac (increase) = assay: Cell-based stimulation assay; conditions: 10 μM
[5] = target: T4, sirtuin 3 (h) (inhibitor effect) (Homo sapiens, UniProt Q9NTG7); assay: Epigenetic enzyme assay, Sirtuins; assay type: biochemical; conditions: read-out: % Inhibition of Control Values
T4 sequence (Q9NTG7 1-399): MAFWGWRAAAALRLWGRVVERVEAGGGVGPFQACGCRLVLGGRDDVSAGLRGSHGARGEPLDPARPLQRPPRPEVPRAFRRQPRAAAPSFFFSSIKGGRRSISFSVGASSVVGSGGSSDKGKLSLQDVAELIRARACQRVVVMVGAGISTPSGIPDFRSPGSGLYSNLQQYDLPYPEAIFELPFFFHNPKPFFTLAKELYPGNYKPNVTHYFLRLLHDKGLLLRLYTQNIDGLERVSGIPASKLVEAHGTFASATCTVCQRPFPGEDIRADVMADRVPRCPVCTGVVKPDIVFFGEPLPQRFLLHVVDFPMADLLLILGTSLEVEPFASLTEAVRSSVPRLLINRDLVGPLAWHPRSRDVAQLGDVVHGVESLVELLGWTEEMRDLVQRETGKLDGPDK

USP 10 (h) = USP 10 (h) (Homo sapiens, UniProt Q14694); assay: Epigenetic enzyme assay, Ubiquitin modifying enzymes; assay type: biochemical; conditions: 10 μM; read-out: % Inhibition of Control Values
Sequence of USP 10 (h) (Q14694 whole entry): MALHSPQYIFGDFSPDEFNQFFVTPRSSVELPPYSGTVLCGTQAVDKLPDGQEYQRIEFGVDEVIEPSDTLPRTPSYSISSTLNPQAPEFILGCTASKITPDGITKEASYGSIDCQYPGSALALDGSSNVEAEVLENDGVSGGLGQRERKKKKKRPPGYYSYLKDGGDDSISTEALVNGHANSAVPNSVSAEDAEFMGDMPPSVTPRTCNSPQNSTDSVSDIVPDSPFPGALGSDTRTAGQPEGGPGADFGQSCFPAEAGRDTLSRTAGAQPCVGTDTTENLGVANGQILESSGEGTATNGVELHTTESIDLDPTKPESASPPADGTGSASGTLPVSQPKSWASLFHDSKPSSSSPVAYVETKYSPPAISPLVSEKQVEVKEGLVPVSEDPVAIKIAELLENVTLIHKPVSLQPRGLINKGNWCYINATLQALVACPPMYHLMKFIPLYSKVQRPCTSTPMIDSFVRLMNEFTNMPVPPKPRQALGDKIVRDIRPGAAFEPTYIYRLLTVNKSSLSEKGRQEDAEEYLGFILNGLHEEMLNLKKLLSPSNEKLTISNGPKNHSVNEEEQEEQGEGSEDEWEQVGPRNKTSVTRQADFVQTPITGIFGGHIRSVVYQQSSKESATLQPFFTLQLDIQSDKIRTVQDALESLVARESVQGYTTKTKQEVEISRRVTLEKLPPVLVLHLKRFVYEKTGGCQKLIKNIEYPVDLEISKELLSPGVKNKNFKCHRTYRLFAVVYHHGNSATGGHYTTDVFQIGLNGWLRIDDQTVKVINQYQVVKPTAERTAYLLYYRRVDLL

Deacetylase, Histone 8 = Deacetylase, Histone 8 (Homo sapiens, UniProt Q9BY41); assay: Deacetylase, Histone 8 (PanLab); assay type: biochemical; conditions: assay year 2014, read-out: % Control Response
Sequence of Deacetylase, Histone 8 (Q9BY41 whole entry): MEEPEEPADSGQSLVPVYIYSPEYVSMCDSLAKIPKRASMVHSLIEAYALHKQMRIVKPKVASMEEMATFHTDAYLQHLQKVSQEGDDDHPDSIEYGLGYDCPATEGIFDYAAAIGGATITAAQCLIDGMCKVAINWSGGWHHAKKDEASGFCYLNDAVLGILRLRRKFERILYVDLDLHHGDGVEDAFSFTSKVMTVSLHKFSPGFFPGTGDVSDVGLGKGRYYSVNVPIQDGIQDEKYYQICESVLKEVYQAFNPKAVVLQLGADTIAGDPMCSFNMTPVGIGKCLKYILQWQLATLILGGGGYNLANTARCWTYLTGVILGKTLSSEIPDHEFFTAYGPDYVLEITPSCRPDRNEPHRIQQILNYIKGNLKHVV

[6] = target: Deacetylase, Sirtuin SIRT6 (Homo sapiens, UniProt Q8N6T7); assay: Deacetylase, Sirtuin SIRT6 (PanLab); assay type: biochemical; conditions: assay year 2014, read-out: % Control Response
Sequence of Deacetylase, Sirtuin SIRT6 (Q8N6T7 whole entry): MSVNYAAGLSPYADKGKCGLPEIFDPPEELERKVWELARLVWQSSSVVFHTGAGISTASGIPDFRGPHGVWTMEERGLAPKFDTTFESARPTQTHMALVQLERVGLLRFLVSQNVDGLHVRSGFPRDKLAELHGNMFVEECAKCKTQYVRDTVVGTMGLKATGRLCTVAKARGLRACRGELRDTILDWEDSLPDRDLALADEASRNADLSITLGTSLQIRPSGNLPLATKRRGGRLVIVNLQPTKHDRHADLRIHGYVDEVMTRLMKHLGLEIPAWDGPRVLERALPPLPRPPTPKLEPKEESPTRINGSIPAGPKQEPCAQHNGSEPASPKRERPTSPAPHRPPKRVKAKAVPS

Sirtuin 6 (h) = Sirtuin 6 (h) (Homo sapiens, UniProt Q8N6T7); assay: Epigenetic enzyme assay, Sirtuins; assay type: biochemical; conditions: 10 μM; read-out: % Inhibition of Control Values
Sequence of Sirtuin 6 (h) (Q8N6T7 whole entry): as above

[7] = target: Nitric Oxide Synthase, Neuronal (nNOS) (Rattus norvegicus, UniProt P29476); assay: Nitric Oxide Synthase, Neuronal (nNOS); assay type: biochemical; conditions: assay year 2014, read-out: % Control Response
H3K27 ac (increase) = assay: Cell-based stimulation assay; conditions: 10 μM
HDAC2 (h) = HDAC2 (h) (Homo sapiens, UniProt Q92769); assay: Epigenetic enzyme assay, Histone deacetylase (HDACs); assay type: biochemical; conditions: read-out: % Inhibition of Control Values
Sequence of HDAC2 (h) (Q92769 whole entry): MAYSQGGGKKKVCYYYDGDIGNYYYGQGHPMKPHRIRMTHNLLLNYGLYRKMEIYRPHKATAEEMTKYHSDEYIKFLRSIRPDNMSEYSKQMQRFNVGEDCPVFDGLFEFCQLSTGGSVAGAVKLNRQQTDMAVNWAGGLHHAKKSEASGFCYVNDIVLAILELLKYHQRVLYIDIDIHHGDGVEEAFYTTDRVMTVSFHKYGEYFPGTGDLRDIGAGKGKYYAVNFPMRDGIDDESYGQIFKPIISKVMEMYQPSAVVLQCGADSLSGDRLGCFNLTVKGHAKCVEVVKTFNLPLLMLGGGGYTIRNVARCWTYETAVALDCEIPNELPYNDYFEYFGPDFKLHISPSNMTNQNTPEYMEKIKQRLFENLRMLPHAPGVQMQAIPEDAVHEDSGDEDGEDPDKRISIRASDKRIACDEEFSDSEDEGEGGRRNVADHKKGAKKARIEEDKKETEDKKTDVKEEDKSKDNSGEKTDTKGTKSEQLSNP

MLL3(h) complex = MLL3(h) complex (Homo sapiens, UniProt Q8NEZ4); assay: Epigenetic enzyme assay, Methyltransferases (MTs); assay type: biochemical; conditions: for inhibition at 10 µM: read-out: % Inhibition of Control Values
[8] = system: Nitric Oxide Synthase, Inducible (iNOS); assay: Nitric Oxide Synthase, Inducible (iNOS); assay type: biochemical; conditions: 10 μM; assay year 2014
[9] = target: Deacetylase, Sirtuin SIRT1 (Homo sapiens, UniProt Q96EB6); assay: Deacetylase, Sirtuin SIRT1 (PanLab); assay type: biochemical; conditions: assay year 2014, read-out: % Control Response
Sequence of Deacetylase, Sirtuin SIRT1 (Q96EB6 whole entry): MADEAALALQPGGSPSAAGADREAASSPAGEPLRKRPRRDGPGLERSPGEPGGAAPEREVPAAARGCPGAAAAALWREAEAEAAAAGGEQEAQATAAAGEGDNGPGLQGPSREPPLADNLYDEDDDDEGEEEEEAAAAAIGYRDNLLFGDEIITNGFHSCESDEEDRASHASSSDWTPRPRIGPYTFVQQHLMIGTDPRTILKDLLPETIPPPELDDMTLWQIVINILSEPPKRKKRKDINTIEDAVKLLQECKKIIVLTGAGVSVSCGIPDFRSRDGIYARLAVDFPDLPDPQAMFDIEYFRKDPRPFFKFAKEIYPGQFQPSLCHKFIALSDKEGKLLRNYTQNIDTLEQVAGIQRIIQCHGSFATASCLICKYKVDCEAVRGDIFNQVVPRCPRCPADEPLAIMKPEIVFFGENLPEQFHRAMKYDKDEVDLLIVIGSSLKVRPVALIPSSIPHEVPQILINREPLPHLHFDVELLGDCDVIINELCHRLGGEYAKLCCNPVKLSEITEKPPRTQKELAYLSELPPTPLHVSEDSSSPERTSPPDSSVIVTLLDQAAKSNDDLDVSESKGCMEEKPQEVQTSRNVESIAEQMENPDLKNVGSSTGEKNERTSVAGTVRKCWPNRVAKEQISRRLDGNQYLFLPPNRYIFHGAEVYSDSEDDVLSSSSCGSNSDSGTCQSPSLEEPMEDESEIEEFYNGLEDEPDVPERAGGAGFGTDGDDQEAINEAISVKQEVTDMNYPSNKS

CC(C)=CCC[C@H](CO)[C@@H]1CC[C@@H](C)c2c1cc(C)c(O)c2O [Compound 1, 7,8,18-trihydroxyserrulat-14-ene]
remaining activity at 10 µM (Deacetylase, Histone 6): 0%
remaining activity at 10 µM [1]: -6%
remaining activity at 10 µM (Deacetylase, Histone 5): -9%
inhibition at 10 µM (BRPF1-1 (h) bromodomain): -25%
% Inhibition of Control Specific Binding (UHRF1 (108-286) (h); 10 μM): good inhibitory activity
inhibition at 10 µM (UHRF1 (108-286) (h); 10 μM): 73%
inhibition of binding, 1st (UHRF1 (108-286) (h); 3.0E−05M): 81.5
inhibition of binding, 2nd (UHRF1 (108-286) (h); 3.0E−05M): 83.3
inhibition of binding, Mean (UHRF1 (108-286) (h); 3.0E−05M): 82.4
inhibition of binding, 1st (UHRF1 (108-286) (h); 3.0E−06M): −1.8
inhibition of binding, 2nd (UHRF1 (108-286) (h); 3.0E−06M): −0.1
inhibition of binding, Mean (UHRF1 (108-286) (h); 3.0E−06M): −0.9
inhibition of binding, 1st (UHRF1 (108-286) (h); 3.0E−07M): −12.1
inhibition of binding, 2nd (UHRF1 (108-286) (h); 3.0E−07M): −13.2
inhibition of binding, Mean (UHRF1 (108-286) (h); 3.0E−07M): −12.7
inhibition of binding, 1st (UHRF1 (108-286) (h); 3.0E−08M): −13.3
inhibition of binding, 2nd (UHRF1 (108-286) (h); 3.0E−08M): −12.6
inhibition of binding, Mean (UHRF1 (108-286) (h); 3.0E−08M): −12.9
inhibition of binding, 1st (UHRF1 (108-286) (h); 3.0E−09M): −11.9
inhibition of binding, 2nd (UHRF1 (108-286) (h); 3.0E−09M): −13.1
inhibition of binding, Mean (UHRF1 (108-286) (h); 3.0E−09M): −12.5
IC50 (UHRF1 (108-286) (h); Table 9, inhibition/concentration-response curve): 11 µM
remaining activity at 10 µM (Deacetylase, Histone 11): 9%
% Inhibition of Control Values (UTX (h); 10 μM): significant inhibitory activity
inhibition at 10 µM (UTX (h); 10 μM): 68%
IC50 (UTX (h); Table 11, inhibition/concentration-response curve): 6.7 µM
remaining activity at 10 µM [2]: 0%
remaining activity at 10 µM (Deacetylase, Histone 10): 11%
remaining activity at 10 µM (Deacetylase, Histone 4): 4%
remaining activity at 10 µM (Deacetylase, Histone 9): -14%
% Control Response [3]: 6%
remaining activity at 10 µM (Phospholipase sPLA2-V): 4%
remaining activity at 10 µM [4]: -16%
remaining activity at 10 µM (Deacetylase, Histone 7): 1%
% Stimulation Relative to Control (H3K9 ac (increase)): −21%
inhibition at 10 µM [5]: -14%
inhibition at 10 µM (USP 10 (h)): 7%
remaining activity at 10 µM (Deacetylase, Histone 8): 29%
remaining activity at 10 µM [6]: 35%
inhibition at 10 µM (Sirtuin 6 (h)): 2%
remaining activity at 10 µM [7]: 14%
% Stimulation Relative to Control (H3K27 ac (increase)): −28%
inhibition at 10 µM (HDAC2 (h)): 1%
inhibition at 10 µM (MLL3(h) complex): -22%
% Control Response [8]: 16%
remaining activity at 10 µM [9]: 6%

CC(C)=CCC[C@@H]1COc2c(C)cc(O)c3c2[C@H]1CC[C@H]3C [Compound 3, 5,18-epoxy-8-hydroxyserrulat-14-ene]
inhibition at 10 µM (BRPF1-1 (h) bromodomain): -4%
inhibition at 10 µM (UHRF1 (108-286) (h); 10 μM): 29%
inhibition at 10 µM (UTX (h); 10 μM): 27%
remaining activity at 10 µM (Phospholipase sPLA2-V): 0%
% Stimulation Relative to Control (H3K9 ac (increase)): −8%
inhibition at 10 µM [5]: -3%
inhibition at 10 µM (USP 10 (h)): -7%
inhibition at 10 µM (Sirtuin 6 (h)): -4%
% Stimulation Relative to Control (H3K27 ac (increase)): −25%
inhibition at 10 µM (HDAC2 (h)): -2%
inhibition at 10 µM (MLL3(h) complex): -33%

Nc1ncnc2c1ncn2[C@@H]1O[C@H](CSCC[C@H](N)C(=O)O)[C@@H](O)[C@H]1O [SAH]
IC50 (MLL3(h) complex; read-out: Reference IC50): 9 µM

CC(C)=CCC[C@@H]1C(O)Oc2c(C)cc(O)c3c2[C@H]1CC[C@H]3C (some centres unmarked) [Compound 2, 5,18-epoxyserrulat-14-en-8,18-diol]
remaining activity at 10 µM (Deacetylase, Histone 6): -17%
remaining activity at 10 µM [1]: -9%
remaining activity at 10 µM (Deacetylase, Histone 5): -11%
inhibition at 10 µM (BRPF1-1 (h) bromodomain): -25%
inhibition at 10 µM (UHRF1 (108-286) (h); 10 μM): 34%
remaining activity at 10 µM (Deacetylase, Histone 11): 5%
inhibition at 10 µM (UTX (h); 10 μM): 5%
remaining activity at 10 µM [2]: 26%
remaining activity at 10 µM (Deacetylase, Histone 10): 9%
remaining activity at 10 µM (Deacetylase, Histone 4): -5%
remaining activity at 10 µM (Deacetylase, Histone 9): -13%
% Control Response [3]: 5%
remaining activity at 10 µM (Phospholipase sPLA2-V): 3%
remaining activity at 10 µM [4]: 24%
remaining activity at 10 µM (Deacetylase, Histone 7): -16%
inhibition at 10 µM [5]: -8%
inhibition at 10 µM (USP 10 (h)): 2%
remaining activity at 10 µM (Deacetylase, Histone 8): 13%
remaining activity at 10 µM [6]: 18%
inhibition at 10 µM (Sirtuin 6 (h)): 6%
remaining activity at 10 µM [7]: 5%
inhibition at 10 µM (HDAC2 (h)): 0%
inhibition at 10 µM (MLL3(h) complex): -21%
% Control Response [8]: 7%
remaining activity at 10 µM [9]: -3%
